Literature values in publication PMC10238757 (Pharmacology Research & Perspectives, 2023).

Key:
[1] = at higher doses; cited from earlier work
HIV-1 = settings: cited from earlier work

Row | Structure (SMILES) | absorption behaviour [1] | potency in vitro (HIV-1)
1 | C=C(C)[C@@H]1CC[C@]2(NCCN3CCS(=O)(=O)CC3)CC[C@]3(C)[C@H](CC[C@@H]4[C@@]5(C)CC=C(c6ccc(C(=O)O)cc6)C(C)(C)[C@@H]5CC[C@]43C)[C@@H]12 [GSK3532795] | plateaus in absorption | 
2 | C=C(C)[C@@H]1CC[C@]2(NCCN3CCS(=O)(=O)CC3)CC[C@]3(C)[C@H](CC[C@@H]4[C@@]5(C)CC=C(C6=CC[C@@](CF)(C(=O)O)CC6)C(C)(C)[C@@H]5CC[C@]43C)[C@@H]12 [GSK3640254, reference compound] | plateaus in absorption | low nanomolar
